Some test systems named below: 786-0; A498; A549; ACHN; CAKI-1; COLO 205; HCC 2998; IGROV-1; MCF7; MOLT-4; NCI-H226; NCI/ADR-RES; OVCAR-3; OVCAR-4; RPMI-8226; RXF 393; SK-MEL-2; SNB-19; SNB-75; PC-3.
Common to all, as to assay: DTP human tumour cell line panel, 48 h

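Exposure lasted 48 hours, with cells grown in 96-well plates and compounds tested at five concentrations. Here, GI50 denotes the concentration required for 50% inhibition of growth.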 Calls of active or inactive are those of the source. Cut-off read from the data, not from the text of the source: active = GI50 up to about 1.1 µM and inactive = higher.

Regarding `COc1ccc(NCc2cnc3nc(N)nc(N)c3c2C)cc1`, the 50% growth inhibitory concentration (GI50) in the test with 786-0 is 0.254 µM (active); in the test with A498, > 100 µM (inactive); with A549, 0.303 µM (active); in the test with ACHN, 0.56 µM (active); in the test on CAKI-1, 6.55 µM (inactive); in the test on COLO 205, 9.35 µM (inactive). Besides, the GI50 with HCC 2998 was 12.7 µM (inactive); in the test with IGROV-1, 0.771 µM (active); in the test with MCF7 it was 2.13 µM (inactive); with MOLT-4, 0.493 µM (active); in the test on NCI-H226, 33.7 µM (inactive); in the test with NCI/ADR-RES, > 100 µM (inactive). Further, the GI50 was 28.4 µM (inactive) in the test with OVCAR-3; > 53.5 µM (inactive) in the test with OVCAR-4; 5.96 µM (inactive) in the test with RPMI-8226; 43.5 µM (inactive) in the test with RXF 393; > 100 µM (inactive) with SK-MEL-2; 21 µM (inactive) with SNB-19. Also, in the test with SNB-75, the GI50 is 52 µM (inactive).
In the case of `COC(=O)C(NC(=O)C(CC(=O)OC(C)(C)C)NC(=O)OC(C)(C)C)C(O)c1ccccc1` (configuration not stated), the GI50 with 786-0, in the test with A498, in the test on A549, in the test on ACHN, with CAKI-1 and with COLO 205 was > 100 µM (inactive) each time. The GI50 in the test with IGROV-1, in the test with MCF7, in the test with MOLT-4, in the test on NCI-H226, in the test on NCI/ADR-RES and in the test on OVCAR-3 was > 100 µM (inactive) each time. Moreover, the GI50 is > 100 µM (inactive) in the test with OVCAR-4; > 100 µM (inactive) with PC-3; > 100 µM (inactive) in the test with RPMI-8226; 97.5 µM (inactive) in the test on RXF 393; > 100 µM (inactive) with SK-MEL-2; > 100 µM (inactive) in the test on SNB-19. The GI50 in the test with SNB-75 was > 100 µM (inactive).
For `O=C1NC(=O)/C(=C\c2ccncc2)N1`, the GI50 in the test with 786-0, with A549, in the test with ACHN, in the test with CAKI-1, in the test with COLO 205 and in the test on HCC 2998 was > 100 µM (inactive) each time. In addition, the GI50 in the test with IGROV-1, in the test on MCF7, with MOLT-4, with NCI-H226, in the test on NCI/ADR-RES and in the test with OVCAR-3 was > 100 µM (inactive) each time. The GI50 in the test on OVCAR-4, in the test with PC-3, with SK-MEL-2, in the test on SNB-19 and with SNB-75 was > 100 µM (inactive) each time.
Consider `CC(C)(C)OC(=O)n1cc(C2CNC(=O)C23CCC(=O)N3Cc2ccccc2)c2ccccc21` (configuration not stated), for which the GI50 in the test on 786-0 is 24.7 µM (inactive); in the test on A498 it was 20 µM (inactive); in the test on A549, 18.7 µM (inactive); in the test with CAKI-1, 36.9 µM (inactive); in the test on COLO 205, 15.8 µM (inactive); with IGROV-1 it was 17.3 µM (inactive). For the same molecule, the GI50 was 27.9 µM (inactive) with MCF7; 36.9 µM (inactive) in the test on MOLT-4; 19.9 µM (inactive) with NCI-H226; 32.4 µM (inactive) in the test with NCI/ADR-RES; 19.2 µM (inactive) in the test with OVCAR-3; 18.7 µM (inactive) in the test on OVCAR-4. For the same molecule, the GI50 is 25.6 µM (inactive) in the test on PC-3; 18.7 µM (inactive) with RPMI-8226; 21.9 µM (inactive) in the test on RXF 393; 17.2 µM (inactive) in the test on SK-MEL-2; 33.3 µM (inactive) with SNB-19; 18.1 µM (inactive) in the test on SNB-75.
Turning to `Oc1ccc2c(c1)c1c(n2CCN2CCOCC2)-c2ccccc2CC1`, the GI50 with 786-0 was 57.8 µM (inactive); with A498, 20.2 µM (inactive); with ACHN, 28.2 µM (inactive); in the test on CAKI-1, 33.7 µM (inactive); in the test with IGROV-1, 15.1 µM (inactive); with MCF7, 31.6 µM (inactive). Also, the GI50 was 23.9 µM (inactive) in the test with MOLT-4; 30.7 µM (inactive) in the test on NCI-H226; 23.1 µM (inactive) in the test on NCI/ADR-RES; 22 µM (inactive) in the test with OVCAR-3; 29.2 µM (inactive) in the test on PC-3; 29.8 µM (inactive) with RPMI-8226. Also, the GI50 with RXF 393 is 29.6 µM (inactive); with SK-MEL-2, 23.1 µM (inactive); with SNB-19, 24.8 µM (inactive); with SNB-75, 28 µM (inactive).
On to `O=C1OCC2=Nc3cccc4cccc(c34)N12`, for which the GI50 in the test with 786-0, in the test with A549, in the test with ACHN, in the test on CAKI-1, with COLO 205 and with HCC 2998 was > 100 µM (inactive) throughout. Moreover, the GI50 in the test with IGROV-1, with MCF7, in the test on MOLT-4, in the test on NCI-H226, in the test on NCI/ADR-RES and in the test with OVCAR-3 was > 100 µM (inactive) throughout. For the same molecule, the GI50 in the test on OVCAR-4, in the test on PC-3, in the test on RXF 393, with SNB-19 and in the test with SNB-75 was > 100 µM (inactive) throughout.
As for `Cc1c(NC(=O)c2cc([N+](=O)[O-])cc([N+](=O)[O-])c2)c(=O)n(-c2ccccc2)n1C`, the GI50 was > 100 µM (inactive) with 786-0; > 100 µM (inactive) with A498; > 100 µM (inactive) with A549; > 100 µM (inactive) with CAKI-1; 20.1 µM (inactive) in the test with COLO 205; 48.8 µM (inactive) with IGROV-1. In addition, the GI50 in the test with MCF7 is 61.7 µM (inactive); with MOLT-4 it was > 100 µM (inactive); in the test on NCI-H226, > 100 µM (inactive); in the test on NCI/ADR-RES, > 100 µM (inactive); in the test with OVCAR-3, 29.9 µM (inactive); in the test on OVCAR-4, 43.9 µM (inactive). Moreover, the GI50 is 49.8 µM (inactive) with PC-3; > 100 µM (inactive) in the test on RPMI-8226; > 100 µM (inactive) with RXF 393; > 100 µM (inactive) in the test on SK-MEL-2; > 100 µM (inactive) in the test on SNB-19.
In the case of `N#CCCC(CC#N)N1CCN(CCO)CC1` (configuration not stated), the GI50 in the test on 786-0, with A498, in the test with A549, in the test on ACHN, with COLO 205 and with HCC 2998 was > 100 µM (inactive) in each case. Besides, the GI50 with IGROV-1, in the test on MCF7, in the test with MOLT-4, in the test with NCI-H226, with NCI/ADR-RES and in the test with OVCAR-4 was > 100 µM (inactive) in each case. Also, the GI50 in the test on RPMI-8226, with RXF 393, with SNB-19 and in the test on SNB-75 was > 100 µM (inactive) throughout.
For the molecule `C=C1C(O)C[C@H](OC(C)=O)[C@]2(C)C1C(OC(C)=O)[C@]1(C(C)(C)O)CC(O)C(C)=C1[C@@H](OC(=O)c1ccccc1)C2OC(C)=O` (some centres not stated), the GI50 with 786-0, in the test on A498, with A549, in the test with ACHN, in the test on CAKI-1 and in the test on COLO 205 was > 10 µM (inactive) in each case. In addition, the GI50 with IGROV-1, in the test on MCF7, in the test with MOLT-4, in the test on NCI-H226, with NCI/ADR-RES and with OVCAR-3 was > 10 µM (inactive) each time. Also, the GI50 in the test on OVCAR-4, in the test with PC-3, in the test on RPMI-8226, in the test with RXF 393, in the test on SK-MEL-2 and in the test with SNB-19 was > 10 µM (inactive) throughout. Moreover, the GI50 in the test with SNB-75 is > 10 µM (inactive).
With `COc1cc2c(cc1OC)-c1[nH]c3ccc(C#N)cc3c1CC(=O)N2`, the GI50 with 786-0 is 3.68 µM (inactive); with A498 it was 7.74 µM (inactive); in the test on A549, 5.26 µM (inactive); with ACHN it was 2.32 µM (inactive); in the test on CAKI-1 it was 1.56 µM (inactive); with COLO 205, 0.463 µM (active). Besides, the GI50 in the test with IGROV-1 is 0.759 µM (active); in the test on MCF7, 4.71 µM (inactive); with MOLT-4, 2.65 µM (inactive); in the test with NCI-H226 it was 3.8 µM (inactive); with NCI/ADR-RES it was > 100 µM (inactive); in the test with OVCAR-3, 1.42 µM (inactive). The GI50 in the test on OVCAR-4 was > 30.1 µM (inactive); with PC-3, 57.5 µM (inactive); with SNB-19 it was > 100 µM (inactive); in the test with SNB-75, 0.44 µM (active).
For the molecule `O=C(CCCn1ccnc1[N+](=O)[O-])NCCn1cnc([N+](=O)[O-])n1`, the GI50 with 786-0, in the test on A498, with A549, in the test on ACHN, in the test with CAKI-1 and in the test on COLO 205 was > 100 µM (inactive) in each case. Moreover, the GI50 in the test with IGROV-1, in the test on MCF7, with MOLT-4, with NCI-H226, with NCI/ADR-RES and in the test with OVCAR-3 was > 100 µM (inactive) in each case. The GI50 in the test on OVCAR-4, in the test on PC-3, with RPMI-8226, in the test with RXF 393, in the test with SK-MEL-2 and with SNB-75 was > 100 µM (inactive) each time.

Source of the values: ChEMBL document CHEMBL1201862, “PubChem BioAssay data set” (2004).
